Results: patent US20090087425A1, “Combination of nitroderivatized steroid and bronchodilator for treating respiratory disease” (Topigen Pharmaceuticals Inc., priority 2007, published 2009)
Several values for one entry are separate records, joined by “and”; a condition that tells them apart may be missing. Equal entries are not always repeated. Entries after “also recorded” stand apart in the source; their conditions may differ. Where two headings read alike, the source gives them in different places.

Legend:
[1] = asthmatic patients, cited from earlier work
[2] = system: bronchoconstriction induced by histamine; assay: Histamine-induced bronchoconstriction in conscious guinea-pigs, whole body plethysmography (sGaw); assay type: in vivo, guinea-pig; settings: for Duration of significant reduction of AHR after treatment: TPI-1020 0.3 mg/ml, or TPI-1020 0.3 mg/ml + salbutamol 20 μg/ml
[3] = system: bronchoconstriction induced by methacholine; assay: Methacholine-induced bronchoconstriction in conscious guinea-pigs, whole body plethysmography (sGaw); assay type: in vivo, guinea-pig
Procedure: Groups of six male Dunkin-Hartley guinea-pigs, weighing 350-450 g were used throughout. Animals received food and water ad libitum and lighting was maintained in the room (22+/−2° C.) on a 12 h cycle. This work complied with the guidelines for the care and use of laboratory animals according to the Animals (Scientific Procedures) Act 1986.
Whole body plethysmography of the conscious guinea-pig was used to monitor airway function, recorded as specific airways conductance (sGaw). The method was as described by Griffiths-Johnson et al. (J. Pharmacol. Meth. 1988; 11:233-240), although a computerized data acquisition system replaced the original oscilloscope and angle resolver (Danahay et al. Clin. Exp. Allergy 1997; 28:513-522). Animals were fitted with a face mask and placed in a restrainer which was then slid into the plethysmograph chamber. The computer ran AcqKnowledge software using a Biopack data acquisition system. This system was capable of acquiring and storing data referring to the air across a pneumotachograph (Mercury FIL) as the animal breathed. The resulting change in box volume (pressure) was simultaneously measured.
Changes in air flow and box pressure were measured using UP1 and UP2 pressure transducers, respectively. The resulting waveforms could then be rapidly analysed by comparing the gradients of the flow and the box pressure waves at a point where flow tended towards zero, i.e. end tidal flow. A function of these two parameters, allowing for air pressure and the weight of the animal, gave the resulting value for specific airway conductance (sGaw). A minimum of five breaths were analysed for each animal at each time point to arrive at a mean value, which is the reported value.
In the experimental examples described herein, the reported values for sGaw measurements were taken following histamine or […] without treatment. This pre-treatment sGaw value measured after histamine or methacholine challenge, by convention, determined 100% bronchoconstriction for the animal. Following treatment with the experimental agents, including agents which are part of the subject invention, sGaw values (level of bronchoconstriction) were reported as a percentage of the pre-treatment value. Thus, a 10% post-treatment sGaw value, as compared to the 100% pre-treatment sGaw, is a 90% reduction in bronchoconstriction, or 90% reduction of airway hyperresponse (AHR). A 20% post-treatment sGaw value corresponds to an 80% reduction in bronchoconstriction or AHR. Thus, the lower the post-treatment sGaw value, the better the reduction of bronchoconstriction and AHR. For purposes of the subject invention, the more desired response is a lower sGaw value (less histamine- or methacholine-induced bronchoconstriction, and less AHR).
All drugs or vehicle were delivered as a whole body exposure chamber. […]
Tiotropium is an antimuscarinic or anticholinergic bronchodilator, different from the beta-agonist bronchodilators, such as salbutamol, described above. Baseline readings were taken on Day 1 prior to treatment (Pre-treatment) to determine 100% bronchoconstriction or AHR induced by methacholine. Recordings of sGaw were made at 0, 5 and 10 minutes after the […] (Post-treatment). The sGaw values of Day 3 are expressed as a percentage of Day 1 sGaw values following methacholine challenge (Pre-treatment), which is by definition set at 100%. Each point represents the mean+/−S.E.M. (n=6). Statistical significance was determined for p<0.05 using Student's paired t-test.
On Day 3, animals were treated with vehicle, alone, or with 1.0, 3.0, or 10.0 ug/ml of tiotropium. […] A dose of 0.1 µg/ml of tiotropium provided less than 40% reduction of AHR.

[4] = system: recruitment of inflammatory cells (neutrophils); settings: cited from earlier work
muscarinic receptors = settings: cited from earlier work
[5] = FIG. 1B, budesonide 0.44 mg/ml, equimolar to 0.63 mg/ml TPI-1020
[6] = FIG. 2B, budesonide 0.44 mg/ml, equimolar to 0.63 mg/ml TPI-1020
[7] = FIG. 2D, TPI-1020 0.11 mMl (0.1 mg/ml in text)
[8] = FIG. 3, TPI-1020 0.3 mg/ml, 30 mins before histamine
[9] = FIG. 3, TPI-1020 0.3 mg/ml, 60 mins before histamine
[10] = FIG. 3, TPI-1020 0.3 mg/ml, 90 mins before histamine
[11] = FIG. 3, salbutamol 30 μg/ml, 30 mins before histamine
[12] = FIG. 3, salbutamol 30 μg/ml, 60 mins before histamine
[13] = FIG. 3, salbutamol 30 μg/ml, 90 mins before histamine

For `COc1ccc(CC(C)NCC(O)c2ccc(O)c(NC=O)c2)cc1` (stereo not drawn) [Formoterol, formoterol], the Duration of bronchodilation ([1]; dose 6 μg) is given as 8 h, the Duration of bronchodilation ([1]; dose 12 μg) is given as 10 h and the Duration of bronchodilation ([1]; dose 24 μg) is given as 12 h.

With `CCCC1O[C@@H]2C[C@H]3[C@@H]4CCC5=CC(=O)C=C[C@]5(C)[C@H]4[C@@H](O)C[C@]3(C)[C@]2(C(=O)CO)O1` (stereo partly drawn) [Budesonide, budesonide] the “% Inhibition” value [2, 5] was 35%, the “Post-treatment (% sGaw)” value [2, 5] was −65.2 % sGaw and the “% Inhibition” value [2, 6] was 35%. The “Post-treatment (% sGaw)” value [2, 6] was −65.2 % sGaw, the “% Inhibition” value ([2]; FIG. 2B, budesonide 0.44 mg/ml, equimolar to 0.63 mg/ml TPI-1020, listed as budesonide) was 40% and the “% Inhibition” value ([2]; FIG. 2D, budesonide 0.11 mM) was 18%. For the same compound, the “Post-treatment (% sGaw)” value ([2]; FIG. 2D, budesonide 0.11 mM) was −81.8 % sGaw.

With “budesonide 21-(4′-nitrooxymethyl)benzoate [TPI-1020]” the “% Inhibition” value ([2]; FIG. 1A, TPI-1020 0.1 mg/ml inhaled 15 min before 3 mM histamine) was 20% and 21%, the “% Inhibition” value ([2]; FIG. 1A, TPI-1020 0.3 mg/ml) was 48% and the “% Inhibition” value ([2]; FIG. 1A, TPI-1020 0.63 mg/ml) was 95%. For the same compound, the “Post-treatment (% sGaw)” value ([2]; FIG. 2A, TPI-1020 0.1 mg/ml) was −83.2 % sGaw, the “% Inhibition” value ([2]; FIG. 2A, TPI-1020 0.3 mg/ml) was 48% and 50% and the “Post-treatment (% sGaw)” value ([2]; FIG. 2A, TPI-1020 0.3 mg/ml) was −49.5 % sGaw. For the same compound, the “% Inhibition” value ([2]; FIG. 2A, TPI-1020 0.63 mg/ml) was 80% and 72%, the “Post-treatment (% sGaw)” value ([2]; FIG. 2A, TPI-1020 0.63 mg/ml) was −27.9 % sGaw and the “% Inhibition” value [2, 7] was “insignificant reduction of AHR”. The “Post-treatment (% sGaw)” value [2, 7] was −83.2 % sGaw, the “% Inhibition” value [2, 8] was 50% and the “Post-treatment (% sGaw)” value [2, 8] was −49.5 % sGaw. The “% Inhibition” value [2, 9] was 7%, the “Post-treatment (% sGaw)” value [2, 9] was −92.7 % sGaw and the “% Inhibition” value [2, 10] was −20%. For the same compound, the “Post-treatment (% sGaw)” value [2, 10] was −120.1 % sGaw, the “Duration of significant reduction of AHR after treatment” value ([2]; FIG. 3, salbutamol 30 μg/ml) was 30 min and the “% Inhibition” value ([2]; FIG. 4B, TPI-1020 0.1 mg/ml) was 17%. For the same compound, the “Post-treatment (% sGaw)” value ([2]; FIG. 4B, TPI-1020 0.1 mg/ml) was −83.2 % sGaw, the “% Inhibition” value ([2]; FIG. 4B, TPI-1020 0.3 mg/ml) was −20% and the “Post-treatment (% sGaw)” value ([2]; FIG. 4B, TPI-1020 0.3 mg/ml) was −120.3 % sGaw. For the same compound, the “Post-treatment (% sGaw)” value ([3]; FIG. 5B, TPI-1020 0.1 mg/ml, 30 mins before methacholine) was −94.0 % sGaw, the “Post-treatment (% sGaw)” value ([3]; FIG. 5B, TPI-1020 0.1 mg/ml, 90 mins before methacholine) was −86.9 % sGaw and the “Post-treatment (% sGaw)” value ([3]; FIG. 5B, TPI-1020 0.3 mg/ml, 30 mins before methacholine) was −18.4 % sGaw. The “Post-treatment (% sGaw)” value ([3]; FIG. 5B, TPI-1020 0.3 mg/ml, 90 mins before methacholine) was −65.3 % sGaw, the “Post-treatment (% sGaw)” value ([3]; FIG. 5C, TPI-1020 0.1 mg/ml) was −86.9 % sGaw and the “Release in the lung of key mediators of inflammation” value ([4]; pre-clinical studies) was “significantly reduce release in the lung of key mediators of inflammation”. For the same compound, the “Recruitment of inflammatory cells (neutrophils)” value ([4]; rodent models of airway inflammation and pulmonary disease) was “significantly block the recruitment of inflammatory cells (neutrophils)”.

In the case of `CC(=O)N[C@H](C(=O)O)C(C)(C)SN=O` (racemic) [SNAP, S-nitroso-N-acetylpenicillamine], the “% Inhibition” value ([2]; FIG. 2C, SNAP 0.15 mg/ml) is reported as 20% and 19%, the “Post-treatment (% sGaw)” value ([2]; FIG. 2C, SNAP 0.15 mg/ml) is reported as −81.2 % sGaw and the “% Inhibition” value ([2]; FIG. 2C, SNAP 0.31 mg/ml) is reported as 47%. For the same compound, the “Post-treatment (% sGaw)” value ([2]; FIG. 2C, SNAP 0.31 mg/ml) was −52.6 % sGaw, the “% Inhibition” value ([2]; FIG. 2D, SNAP 0.7 mM) was 19% and the “Post-treatment (% sGaw)” value ([2]; FIG. 2D, SNAP 0.7 mM) was −81.2 % sGaw.

In the case of `CC(C)(C)NCC(O)c1ccc(O)c(CO)c1` (stereo not drawn) [Salbutamol, salbutamol], the “% Inhibition” value ([2]; FIG. 1C, salbutamol 3 μg/ml) is reported as 12%, the “Post-treatment (% sGaw)” value ([2]; FIG. 1C, salbutamol 3 μg/ml) is reported as −87.6 % sGaw and the “% Inhibition” value ([2]; FIG. 1C, salbutamol 3 μg/ml, listed as salbutamol) is reported as “no significant inhibition effect”. The “% Inhibition” value ([2]; FIG. 1C, salbutamol 10 μg/ml) was 3%, the “Post-treatment (% sGaw)” value ([2]; FIG. 1C, salbutamol 10 μg/ml) was −96.7 % sGaw and the “% Inhibition” value ([2]; FIG. 1C, salbutamol 10 μg/ml, listed as salbutamol) was “no significant inhibition effect”. The “% Inhibition” value ([2]; FIG. 1C, salbutamol 20 μg/ml) was 20%, the “Post-treatment (% sGaw)” value ([2]; FIG. 1C, salbutamol 20 μg/ml) was −80.1 % sGaw and the “% Inhibition” value ([2]; FIG. 1C, salbutamol 30 μg/ml) was 84%. The “Post-treatment (% sGaw)” value ([2]; FIG. 1C, salbutamol 30 μg/ml) was −15.6 % sGaw, the “% Inhibition” value ([2]; FIG. 1C, salbutamol 30 μg/ml, listed as salbutamol) was 85% and the “% Inhibition” value ([2]; FIG. 2D, salbutamol 20 μg/ml) was 11%. The “Post-treatment (% sGaw)” value ([2]; FIG. 2D, salbutamol 20 μg/ml) was −89.0 % sGaw, the “% Inhibition” value ([2]; FIG. 2D, salbutamol 20 μg/ml, listed as salbutamol) was “insignificant reduction of AHR; also recorded: do not significantly reduce AHR” and the “% Inhibition” value [2, 11] was 84%. For the same compound, the “Post-treatment (% sGaw)” value [2, 11] was −15.6 % sGaw, the “% Inhibition” value [2, 12] was 47% and the “Post-treatment (% sGaw)” value [2, 12] was −52.7 % sGaw. The “% Inhibition” value [2, 13] was 9%, the “Post-treatment (% sGaw)” value [2, 13] was −91.4 % sGaw and the “Duration of significant reduction of AHR after treatment” value ([2]; FIG. 3, salbutamol 30 μg/ml) was 60 min.

In the case of `C[N+]1(C)[C@@H]2C[C@@H](OC(=O)C(O)(c3cccs3)c3cccs3)C[C@H]1[C@@H]1O[C@@H]12` [Tiotropium, tiotropium], the “% Inhibition” value ([3]; FIG. 5A, tiotropium 1 μg/ml) is reported as 35%, the “Post-treatment (% sGaw)” value ([3]; FIG. 5A, tiotropium 1 μg/ml) is reported as −65.2 % sGaw and the “% Inhibition” value ([3]; FIG. 5A, tiotropium 3 μg/ml) is reported as 73%. For the same compound, the “Post-treatment (% sGaw)” value ([3]; FIG. 5A, tiotropium 3 μg/ml) was −26.7 % sGaw, the “% Inhibition” value ([3]; FIG. 5A, tiotropium 3 μg/ml, listed as tiotropium) was “about 75%” and the “% Inhibition” value ([3]; FIG. 5A, tiotropium 10 μg/ml) was roughly 85%. For the same compound, the “Post-treatment (% sGaw)” value ([3]; FIG. 5A, tiotropium 10 μg/ml) was −14.9 % sGaw, the “% Inhibition” value ([3]; FIG. 5C, tiotropium 1 μg/ml) was 35% and the “Post-treatment (% sGaw)” value ([3]; FIG. 5C, tiotropium 1 μg/ml) was −65.2 % sGaw. The “Selectivity for specific muscarinic receptors” value (muscarinic receptors) was “does not display selectivity for specific muscarinic receptors”.
